Data from ChEMBL document CHEMBL3124935, “Synthesis and study of cytotoxic activity of 1,2,4-trioxane- and egonol-derived hybrid molecules against Plasmodium falciparum and multidrug-resistant human leukemia cells” (Eur J Med Chem, 2014).

Key:
Plasmodium falciparum = test: Antimalarial activity against Plasmodium falciparum 3D7 assessed as growth inhibition after 3 days by HRP2 based ELISA; format: functional, organism-based; conditions: 3D7, 72 h
CCRF-CEM [1] = test: Resistance ratio of IC50 for human multidrug-resistant CEM/ADR5000 cells expressing p-glycoprotein to IC50 for human CCRF-CEM cells; format: functional
[2] = Cytotoxicity against human multidrug-resistant CEM/ADR5000 cells expressing p-glycoprotein by resazurin assay; format: functional, cell-based
CCRF-CEM [3] = test: Cytotoxicity against human CCRF-CEM cells by resazurin assay; format: functional, cell-based
[4] = Cytotoxicity against human multidrug-resistant CEM/ADR5000 cells expressing p-glycoprotein at 400 uM by resazurin assay; format: functional, cell-based

SMILES | IC50 (Plasmodium falciparum) [nM] | Ratio IC50 (CCRF-CEM [1]) | IC50 [2] [nM] | IC50 (CCRF-CEM [3]) [nM] | IC50 [4]
C[C@H]1[C@H](OC(=O)CCC(=O)NCC(O)CNC(=O)CCC(=O)O[C@@H]2O[C@@H]3O[C@@]4(C)CC[C@H]5[C@H](C)CC[C@@H]([C@H]2C)[C@@]35OO4)O[C@@H]2O[C@@]3(C)CC[C@H]4[C@H](C)CC[C@@H]1[C@@]24OO3 (some centres undefined) | 0.32 | – | – | – | –
C[C@H]1[C@H](OC(=O)CCC(=O)NCCCCCCCCNC(=O)CCC(=O)O[C@@H]2O[C@@H]3O[C@@]4(C)CC[C@H]5[C@H](C)CC[C@@H]([C@H]2C)[C@@]35OO4)O[C@@H]2O[C@@]3(C)CC[C@H]4[C@H](C)CC[C@@H]1[C@@]24OO3 | 0.3 | – | – | – | –
COc1cc(CCCOC(=O)CCC(=O)O[C@@H]2O[C@@H]3O[C@@]4(C)CC[C@H]5[C@H](C)CC[C@@H]([C@H]2C)[C@@]35OO4)cc2cc(-c3ccc4c(c3)OCO4)oc12 | 2.3 | 6.12 | 1120 | 180 | –
C[C@@H]1CC[C@H]2[C@@H](C)C(CCCO)O[C@@H]3O[C@@]4(C)CC[C@@H]1[C@]32OO4 (some centres undefined) | – | – | – | 174000 | Not Active
C[C@@H]1CC[C@H]2[C@@H](C)C(=O)O[C@@H]3O[C@@]4(C)CC[C@@H]1[C@]32OO4 [ARTEMISININ] | – | 0.73 | – | – | –
C[C@H]1[C@H](OC(=O)CCC(=O)O)O[C@@H]2O[C@@]3(C)CC[C@H]4[C@H](C)CC[C@@H]1[C@@]24OO3 [ARTESUNATE] | 0.82 | 0.67 | 1200 | – | –
COc1cccc2c1C(=O)c1c(O)c3c(c(O)c1C2=O)C[C@@](O)(C(=O)CO)C[C@@H]3O[C@H]1C[C@H](N)[C@H](O)[C@H](C)O1 [DOXORUBICIN] | – | 2585 | 23300 | 9 | –
COc1cc(CCCO)cc2cc(-c3ccc4c(c3)OCO4)oc12 [EGONOL] | 25400 | 1.7 | 9780 | 5750 | –
